# Experiments:
# Format in all cases: in vivo, SD rats
# Conditions in all cases: rat, in vivo
# [1] = tested on: SOD; test: SOD determination, cerebral ischemic reperfusion MCAO model
# Procedure: (§1) Rats were intraperitoneally injected with 10% chloral hydrate 350 mg/kg after anesthesia and opened up at the center of the neck in accordance with the Zea Longa modified method. The right common carotid artery was separated, and the right external carotid artery branches was ligated. A small opening was made at the distal end of the external carotid artery, and a previously prepared thread was inserted through the common carotid artery and the external carotid artery bifurcation into the internal carotid artery, till the anterior end of the middle cerebral artery, with an immersed depth of 18 to 19 mm. The thread was then secured, and the wound was sutured layer by layer. After the operation, the rats were placed in a clean incubator to wake up. […] The sham operation group, the ischemic reperfusion group, and the Example groups were prepared strictly according to the requirements of the cerebral ischemic reperfusion model, while in the sham operation group the thread was put only into the external carotid artery. The animals were allowed to eat and drink freely after waking up. After 2 h, the thread was pulled out to achieve reperfusion. The sham operation group, the ischemic reperfusion group, and the Example groups were administered intravenously the aqueous solution of the biphenyl derivatives in PEG400 at 40 mg/kg (40 mg/kg means that 40 mg of the test compound per kg of the body weight of rats) 30 min before reperfusion and 12 h after reperfusion, respectively. The sham operation group and the ischemic reperfusion group were injected with the same amount of blank PEG400 aqueous solution at the same time point.
# (§2) 24 hours after reperfusion, 8 rats in each group were sacrificed by decapitation, the brain was removed, rinsed with PBS (pH 7.4) at −20° i for 20 min, evenly sliced (with a thickness of 2 mm), stained in a 2% TTC solution at 37°% in the dark for 30 min, fixed in 10% formalin for 24 h, and photographs were taken to analyze the infarct volume. A mixture of femoral arterial and venous blood was drawn from another 8 rats in each group under anesthesia, placed in a low temperature centrifuge at 4° C., centrifuged at 3500 r/min for 20 min, and the supernatant was stored in a refrigerator at −20° C. ready for SOD and MDA detection. After the blood was drawn, a perfusion needle was insert through the apex to the ascending aorta, and saline at 4° C. was rapid infused until the effluent became clear, followed by 4% paraformaldehyde phosphate buffer perfusion for fixation; the brain was removed by craniotomy, and brain tissues 2 mm in front of and behind the optic chiasma were taken and fixed, dehydrated, rendered transparent, impregnated in wax, and embedded. Brain continuous coronary tissue pathological sections were consecutively cut for later use. The remaining 8 rats in each group were sacrificed, brains were removed, the ischemic brain hemispheres were immediately taken on an ice tray, and 10% brain tissue homogenate was prepared for the detection of IL-1β and TNF-α.
# (§3) SOD and MDA were determined strictly in accordance with instructions of the kit.
# [2] = tested on: MDA; test: MDA determination, cerebral ischemic reperfusion MCAO model
# Procedure: as §1, §2, §3
# [3] = tested on: Fas; test: Fas determination (immunohistochemical method), cerebral ischemic reperfusion MCAO model
# Procedure: as §1, §2
# (§4) The immunohistochemical method was used for determination. Brain tissue paraffin sections were dewaxed into water, washed with 3% H2O2 to eliminate endogenous peroxidase activity, and rinsed with distilled water for 3 times. Sodium citrate buffer was used for antigen heat repairing, and blocking with calf serum was carried out at room temperature for 15 min; a rabbit anti-mouse Fas antibody was added dropwise, allowed to stand at 4°t overnight, biotinylated goat anti-rabbit IgG was added dropwise, and heated in a water bath at 37°a for 20 min. Washing with PBS for 5 min was continuously repeated 4 times, followed by staining with DAB and sufficient washing without counterstaining. The sections were then gradient dehydrated with alcohol, made transparent with toluene, sealed and fixed. Images were captured by a video camera under high-power optical microscope and inputted into the image analysis system for image analysis. […]
# [4] = tested on: SOD; test: SOD determination, permanent cerebral ischemia model
# Procedure: as §1, with “the permanent cerebral ischemia model” for “the ischemic reperfusion”, “up.” for “up. After 2 h, the thread was pulled out to achieve reperfusion.”, “before insertion of thread” for “before reperfusion”, “after embolism,” for “after reperfusion,”
# as §2, with “the embolism,” for “reperfusion,”, “−20°i” for “−20° i”
# as §3
# [5] = tested on: MDA; test: MDA determination, permanent cerebral ischemia model
# Procedure: as §1, with “the permanent cerebral ischemia model” for “the ischemic reperfusion”, “up.” for “up. After 2 h, the thread was pulled out to achieve reperfusion.”, “before insertion of thread” for “before reperfusion”, “after embolism,” for “after reperfusion,”
# as §2, with “the embolism,” for “reperfusion,”, “−20°i” for “−20° i”
# as §3
# [6] = tested on: Fas; test: Fas determination (immunohistochemical method), permanent cerebral ischemia model
# Procedure: as §1, with “the permanent cerebral ischemia model” for “the ischemic reperfusion”, “up.” for “up. After 2 h, the thread was pulled out to achieve reperfusion.”, “before insertion of thread” for “before reperfusion”, “after embolism,” for “after reperfusion,”
# as §2, with “the embolism,” for “reperfusion,”, “−20°i” for “−20° i”
# as §4
smiles,measurement,setting,value
"CC(C)c1cccc(C(C)C)c1O [Propofol injection, propofol, reference compound]",SOD ACTIVITY (U/mL),[1],88.25 ± 2.19 U/mL
same,MDA CONTENT,[2],5.58 ± 0.48 mmol/mL
same,Fas average gray scale,[3],142.15 ± 5.71
same,SOD ACTIVITY (U/mL),[4],89.13 ± 3.82 U/mL
same,MDA CONTENT,[5],6.10 ± 0.29 mmol/mL
same,Fas average gray value,[6],140.51 ± 4.84

# From patent publication US10329243B2, “Biphenyl derivative and uses thereof” (XI'AN LIBANG PHARMACEUTICAL CO., LTD, priority 2015, dated 2019)
